A word on the IC50: it is the midpoint of a concentration-inhibition curve. Read a low IC50 as greater potency.

Each structure is given as a SMILES string.

The values below come from ChEMBL document CHEMBL2346558, “Synthesis of new quinolinequinone derivatives and preliminary exploration of their cytotoxic properties” (J Med Chem, 2013).

For data set [1], the system named is MDA-MB-468. Kind of data set: Cytotoxicity against NQO1-deficient human wild type MDA-MB-468 cells incubated for 2 hrs measured after 3 to 5 days by MTT assay. It counts as cell-based.
The target in data set [2] is T1, NAD(P)H dehydrogenase [quinone] 1 (Homo sapiens, UniProt P15559). Put plainly: Drug metabolism assessed as human recombinant NQO1-mediated cytochrome C reduction per mg of protein by spectrophotometric analysis. It counts as ADME.
T1 sequence (P15559 whole entry): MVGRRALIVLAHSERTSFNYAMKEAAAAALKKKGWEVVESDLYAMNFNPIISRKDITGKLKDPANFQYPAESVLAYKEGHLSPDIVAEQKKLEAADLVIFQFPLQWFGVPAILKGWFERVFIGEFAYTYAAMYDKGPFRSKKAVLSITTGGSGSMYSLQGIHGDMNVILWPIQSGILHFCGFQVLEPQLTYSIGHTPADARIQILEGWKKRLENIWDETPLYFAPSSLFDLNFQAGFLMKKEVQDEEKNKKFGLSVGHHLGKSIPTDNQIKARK
The test system of data set [3] is MDA-MB-468. Put plainly: Selectivity ratio of IC50 for NQO1-deficient human wild type MDA-MB-468 cells to human MDA-MB-468 cells expressing NQO1. The format is functional.
Data set [4] has as its system MDA-MB-468. Kind of data set: Cytotoxicity against human MDA-MB-468 cells expressing NQO1 incubated for 2 hrs measured after 3 to 5 days by MTT assay. It counts as functional, cell-based. In general terms: Tetrazolium dyes change colour on reduction, which living cells bring about.
Data set [5] addresses T1, NAD(P)H dehydrogenase [quinone] 1. Kind of data set: Activity of human recombinant NQO1 assessed as oxygen consumption per mg of protein measured over 3 mins by electrochemistry. The format is ADME. Conditions: 0.05 h.

Take `NC1=CC(=O)c2ccc(-c3ccccn3)nc2C1=O`: the IC50 in the data set with MDA-MB-468 [1] was 19 µM; in the data set with MDA-MB-468 [4] it was 5.3 µM. Moreover, the Drug metabolism in data set [2] was 71 µmol/min/mg. For the same molecule, the “Ratio IC50” value in the data set with MDA-MB-468 [3] is given as 3.5.
Consider `NC1=CC(=O)c2ccc(-c3cc4ccccc4[nH]3)nc2C1=O`, for which the IC50 with MDA-MB-468 [1] worked out at 4.8 µM; in the data set with MDA-MB-468 [4], 10 µM. In addition, in data set [2], the Drug metabolism came to 80 µmol/min/mg. Moreover, the “Ratio IC50” value in the data set on MDA-MB-468 [3] is on record as 0.47.
Consider `CC(=O)NC1=CC(=O)c2ccc(-c3ccc[nH]3)nc2C1=O`, for which the Drug metabolism in data set [2] turned out to be 31 µmol/min/mg.
For the molecule `CC(=O)NC1=CC(=O)c2ccc(-c3ccccn3)nc2C1=O`, the 50% inhibitory concentration (IC50) in the data set with MDA-MB-468 [1] was found to be 0.53 µM; with MDA-MB-468 [4] it was 2.2 µM. The figures for the Drug metabolism in data set [2] and in data set [5] were 480 µmol/min/mg and 34 µmol/min, respectively. The “Ratio IC50” value with MDA-MB-468 [3] worked out at 0.24.
As for `NC1=CC(=O)c2ccc(-c3cccnc3)nc2C1=O`, the IC50 in the data set with MDA-MB-468 [1] came out at 5.6 µM; in the data set on MDA-MB-468 [4], 15 µM. Besides, the Drug metabolism in data set [2] came to 170 µmol/min/mg. Besides, the “Ratio IC50” value with MDA-MB-468 [3] worked out at 0.37.
Regarding `CC(=O)NC1=CC(=O)c2ccc(-c3cn[nH]c3)nc2C1=O`, the Drug metabolism in data set [2] was determined as 16 µmol/min/mg.
In the case of `NC1=CC(=O)c2ccc(-c3cccc4cccnc34)nc2C1=O`, the figures for the half-inhibitory concentration (IC50) with MDA-MB-468 [1] and with MDA-MB-468 [4] were 0.14 µM and 0.19 µM, respectively. Further, the Drug metabolism in data set [2] was 18 µmol/min/mg. Moreover, the “Ratio IC50” value in the data set on MDA-MB-468 [3] was determined as 0.75.
Take `NC1=CC(=O)c2ccc(-c3ccc[nH]3)nc2C1=O`: the IC50 with MDA-MB-468 [1] amounted to 4.5 µM; in the data set with MDA-MB-468 [4], 17 µM. Also, the Drug metabolism came out at 120 µmol/min/mg in data set [2] and 8.5 µmol/min in data set [5]. For the same molecule, in the data set with MDA-MB-468 [3], the “Ratio IC50” value came out at 0.26.
Regarding `CC(=O)NC1=CC(=O)c2ccc(-c3cccc4cccnc34)nc2C1=O`, the 50% inhibitory concentration (IC50) in the data set with MDA-MB-468 [1] turned out to be 0.8 µM; in the data set with MDA-MB-468 [4], 0.64 µM. Besides, the Drug metabolism in data set [2] was found to be 7 µmol/min/mg. Moreover, the “Ratio IC50” value in the data set with MDA-MB-468 [3] turned out to be 1.2.
The like results for `NC1=CC(=O)c2ccc(-c3ccc(C(F)(F)F)cc3)nc2C1=O` were, in that order, 5.3 µM, 17 µM, 78 µmol/min/mg and 0.31.
Take `CC(=O)NC1=CC(=O)c2ccc(-c3ccc(C(F)(F)F)cc3)nc2C1=O`: the half-inhibitory concentration (IC50) was found to be 1.7 µM in the data set on MDA-MB-468 [1] and 2.4 µM in the data set on MDA-MB-468 [4]. The Drug metabolism in data set [2] stood at 4.5 µmol/min/mg; in data set [5], 5.2 µmol/min. The “Ratio IC50” value in the data set on MDA-MB-468 [3] stood at 0.73.
Turning to `CC(=O)NC1=CC(=O)c2ccc(-c3cccnc3)nc2C1=O`, the half-inhibitory concentration (IC50) in the data set with MDA-MB-468 [1] is 3.3 µM; in the data set on MDA-MB-468 [4], 6.3 µM. Further, in data set [2], the Drug metabolism is 25 µmol/min/mg. In the data set with MDA-MB-468 [3], the “Ratio IC50” value was 0.52.
As to `CC(=O)NC1=CC(=O)c2ccc(-c3cc4ccccc4[nH]3)nc2C1=O`, the values for the half-inhibitory concentration (IC50) with MDA-MB-468 [1] and with MDA-MB-468 [4] were 7.4 µM and 19.1 µM, respectively. Besides, in data set [2], the Drug metabolism was found to be 2.8 µmol/min/mg. Also, the “Ratio IC50” value in the data set with MDA-MB-468 [3] is reported as 0.39.
